Test results reported in patent US9528112B2, “Composition comprising material for inhibiting SCF or receptor thereof for treating or preventing diseases associated with vascular permeability” (AJOU UNIVERSITY INDUSTRY-ACADEMIC COOPERATION FOUNDATION, priority 2012, dated 2016).

Experiments:
[1] = test system: vascular endothelial cells; experiment: C-Kit dependent permeability of vascular endothelial cells with SCF (siRNA, transwell, FITC-dextran); format: cell-based; conditions: SCF 20 ng/ml; FITC-conjugated dextran; FIG. 1B
Description: Vascular endothelial cells were loaded in 60 mm plate. The control siRNA 5′-[…]-3′ (SEQ. ID. NO: 1) and the C-Kit siRNAs 5′-UCAUUCUUGAUGUCUCUGG-3′ (SEQ. ID. NO: 2); 5′-UUUGAGUUCAGACAUGAGG-3′ (SEQ. ID. NO: 3); 5′-UCUUAUAAAGUGCAGCUUC-3′ (SEQ. ID. NO: 4); and 5′-UACAAUGCCAUUCUGAAGC-3′ (SEQ. ID. NO: 5) were introduced in the cells by using lipofectamin. 24 hours later, the endothelial cells were transferred into the upper chamber of 12 well transwell filter (Corning Costar), followed by culture for 24 hours. The medium was replaced with the endothelical basal medium supplemented with 1% FBS, followed by further culture for 3 hours. SCF was treated thereto at the concentration of 20 ng/ml, followed by the treatment with FITC-conjugated dextran (1 mg/ml). 30 minutes later, the culture fluid was taken from the lower chamber, followed by the measurement with a fluorophotometer.

C-Kit and Akt-eNOS = experiment: Intracellular signaling pathway of vascular endothelial cells with SCF (Western blotting); format: cell-based; conditions: SCF 20 ng/ml, cells harvested over time, FIG. 1C
Description: Vascular endothelial cells were loaded in 60 mm plate, followed by culture for 24 hours. The medium was replaced with the endothelical basal medium supplemented with 1% FBS, followed by further culture for 6 hours. SCF (20 ng/ml) was treated thereto and the cells were harvested over the time, followed by Western blotting.

[2] = test system: vascular endothelial cells; experiment: Vascular endothelial cell permeability with SCF (transwell, FITC-dextran); format: cell-based; conditions: SCF 10, 20 and 50 ng/ml for 1 hour; FITC-conjugated dextran 1 mg/ml, 30 minutes; FIG. 1A
Description: Vascular endothelial cells were loaded in the upper chamber of 12 well transwell filter (Corning Costar), followed by culture for 48 hours. The medium was replaced with the endothelical basal medium supplemented with 1% FBS, followed by further culture for 3 hours. SCF (R&D Systems, Minneapolis, Minn., USA) was treated thereto at different concentrations (10, 20, and 50 ng/ml) for 1 hour, followed by the treatment with FITC-conjugated dextran (fluorescein isothiocyanate-dextran) (1 mg/ml). 30 minutes later, the culture fluid was taken from the lower chamber, followed by the measurement with a fluorophotometer.

mouse retinal vessels = experiment: Angiography of mouse retinal vessels (FITC-dextran, flat mount); format: in vivo; conditions: SCF injected in the retina; 24 hours; FIG. 4A, 4B
Description: SCF and SCF receptor inhibiting antibody were injected in the retina of C57/BL6 mouse. 24 hours later, the mouse was anesthetized and then intracardiac FITC-dextran injection was performed in order to let the fluorescein flow through blood. 30 minutes later, the retina of the mouse was extracted and observed under a fluorescence microscope after flat mounting.

[3] = test system: vascular endothelial cells; experiment: eNOS dependent increase of vascular endothelial cell permeability by SCF (L-NAME, transwell); format: cell-based; conditions: SCF 20 ng/ml for 1 hour; FIG. 2B
Description: Vascular endothelial cells were loaded in the upper chamber of 12 well transwell filter (Corning Costar), followed by culture for 48 hours. The medium was replaced with the endothelical basal medium supplemented with 1% FBS, followed by further culture for 3 hours. L-NAME, the eNOS inhibitor, was pretreated (1 mM) to the cells for 30 minutes and then SCF (R&D Systems, Minneapolis, Minn., USA) was treated (20 ng/ml) thereto for 1 hour. FITC-conjugated dextran (fluorescein isothiocyanate-dextran) was also treated (1 mg/ml) thereto. 30 minutes later, the culture fluid was taken from the lower chamber, followed by the measurement with a fluorophotometer.

VE-cadherin = VE-cadherin endocytosis of vascular endothelial cells (immunostaining); format: cell-based; conditions: SCF 20 ng/ml or VEGF 50 ng/ml, 37° C., 30 minutes; for expression of VE-cadherin on the cell surface: FIG. 2C; for endocytosis of VE-cadherin: acid buffer wash, FIG. 2D
Description: Vascular endothelial cells were cultured in 8 well chamber slide (Lab-Tek) for 48 hours. The medium was replaced with the endothelical basal medium supplemented with 1% FBS, followed by culture for 16 hours. The cells were treated with VE-cadherin antibody (R&D Systems, Minneapolis, Minn., USA) at 4° C. for 1 hour. SCF (20 ng/ml) and VEGF (50 ng/ml) (R&D Systems, Minneapolis, Minn., USA) were added thereto at 37° C. for 30 minutes to introduce VE-cadherin into the cells. To observe VE-cadherin on the cell surface, fixation was performed with 4% PFA, followed by immunostaining. To observe VE-cadherin in the inside of the cells migrated by SCF and VEGF mediated endocytosis, VE-cadherin on the cell surface was first removed by using an acid buffer (pH 2.7) and then the cells were fixed with 4% PFA, followed by immunostaining. Then, observation under a fluorescence microscope was performed.

C57/BL mouse = experiment: Vascular permeability in mouse subcutaneous tissue (Evans blue dye, back skin, OD620); format: in vivo; conditions: SCF injected intradermally; skin collected after 20 minutes; FIG. 3A, 3B
Description: Evans blue dye […] was injected intravenously in the tail of C57/BL mouse. 10 minutes later, SCF and SCF receptor inhibiting antibody (anti-cKit IgG: Monoclonal anti-SCF receptor neutralization antibody: R&D Systems, Minneapolis, Minn., USA) were injected intradermally on the back of the mouse. 20 minutes later, the back skin of the mouse was collected. The region where Evans blue dye was penetrated through tissues was photographed. The skin was fixed in formamide, which stood at room temperature for 4 days. Then, OD620 was measured by using a spectrophotometer.

[4] = test system: NO (nitric oxide) in vascular endothelial cells; experiment: Generation of NO in vascular endothelial cells induced by SCF; format: cell-based; conditions: SCF 20 ng/ml; culture supernatant collected over time; FIG. 2A
Description: Vascular endothelial cells were cultured in 12 well plate for 24 hours. The medium was replaced with the endothelial basal medium supplemented with 1% FBS, which was then treated with SCF (20 ng/ml). The culture fluid was collected over the time, followed by centrifugation. The level of NO (nitric oxide) in the supernatant was measured (Total No/Nitrite/Nitrate Assay Kit).

## SCF: cytokine binding to C-Kit (CD117); R&D Systems
[1]
  permeability of the endothelial cells: increased
C-Kit and Akt-eNOS
  phosphorylation of C-Kit and Akt-eNOS: induced the phosphorylation
[2]
  permeability of vascular endothelial cells: increased by the treatment of SCF dose-dependently
Mouse retinal vessels
  retinal vessel permeability: increased
[3]
  permeability of endothelial cells: increased
VE-cadherin
  expression of VE-cadherin on the cell surface: reduced
  endocytosis of VE-cadherin: induced
C57/BL mouse
  vascular permeability of the mouse (Evans blue leakage in back skin): increased
[4]
  level of NO: increased

## VEGF
VE-cadherin
  expression of VE-cadherin on the cell surface: decreased
  endocytosis of VE-cadherin: increased
